Values joined by “and” are separate entries in the source; they are usually repeats but may differ in a detail not shown here. Equal values may be shown once. Read-outs that look alike come from different tables or passages of the source.
Tests used:
Assay in all cases: MIC of compounds alone and combined with antibacterials, broth microdilution (CLSI)
Assay type in all cases: cell-based
[1] = tested on: Citrobacter freundii (CFR) isolates
Method in brief: (§1)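 Antibacterial MICs in combination were determined at every compound concentration tested, alongside compound MICs alone. Bacteria grew in cation-adjusted Mueller-Hinton broth starting from 5.10^5 CFU/mL, incubated at 35° C for 16-20 h, and endpoints were the lowest concentrations with no visible growth.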

[2] = tested on: Citrobacter koseri (CKR) isolates
Method in brief: as §1

[3] = tested on: Enterobacter aerogenes (EAE) isolates
Method in brief: as §1

[4] = tested on: Escherichia coli (ECO) isolates
Method in brief: as §1

CC1(C)S[C@@H]2[C@H](NC(=O)[C@H](N)c3ccc(O)cc3)C(=O)N2[C@H]1C(=O)O [AMX, Amoxicillin]
MIC ATB in combination ([1]; CFR UFR10, AF2 @ 8 μg/mL): 1 µg/mL | MIC ATB in combination ([1]; CFR UFR10, CLA @ 4 μg/mL): >128 µg/mL | MIC ATB in combination ([1]; CFR UFR11, AF2 @ 8 μg/mL): >128 µg/mL | MIC ATB in combination ([1]; CFR UFR11, CLA @ 4 μg/mL): >128 µg/mL | MIC ATB in combination ([1]; CFR UFR37, AF2 @ 8 μg/mL): <0.25 µg/mL | MIC ATB in combination ([1]; CFR UFR37, CLA @ 4 μg/mL): >128 µg/mL | MIC ATB in combination ([1]; CFR UFR83, AF2 @ 8 μg/mL): >128 µg/mL | MIC ATB in combination ([1]; CFR UFR83, CLA @ 4 μg/mL): >128 µg/mL | MIC ATB in combination ([1]; CFR UFR146, CLA @ 4 μg/mL): >128 µg/mL | MIC ATB in combination ([1]; CFR UFR248, CLA @ 4 μg/mL): >128 µg/mL | MIC ATB in combination ([1]; CFR UFR249, CLA @ 4 μg/mL): >128 µg/mL | MIC ATB in combination ([1]; CFR UFR250, CLA @ 4 μg/mL): 128 µg/mL | MIC ([1]; strain CFR UFR10, genotype OXA-48): >256 µg/mL | MIC ([1]; strain CFR UFR11, genotype TEM-1, OXA-1, OXA-48): >256 µg/mL | MIC ([1]; strain CFR UFR37, genotype TEM-1, CTX-M-15, NDM-1): >256 µg/mL | MIC ([1]; strain CFR UFR83, genotype TEM-3, AmpC): >256 µg/mL | MIC ([1]; strain CFR UFR146, genotype TEM-1, KPC-2): >128 µg/mL | MIC ([1]; strain CFR UFR147, genotype TEM-1, CTX-M-15, OXA-1, OXA-181, OXA-10, OXA-9, NDM-1, ArmA, dfrA12, aadA2, antibiotic alone): >128 µg/mL | MIC ATB in combination ([1]; strain CFR UFR147, with CLA @ 4 μg/mL): >128 µg/mL | MIC ([1]; strain CFR UFR148, genotype TEM-1, TEM-2, CTX-M-15, NDM-1, antibiotic alone): >128 µg/mL | MIC ATB in combination ([1]; strain CFR UFR148, with CLA @ 4 μg/mL): >128 µg/mL | MIC ([1]; strain CFR UFR248, genotype CTX-M-15): >128 µg/mL | MIC ([1]; strain CFR UFR249, genotype TEM-1, CTX-M-15): >128 µg/mL | MIC ([1]; strain CFR UFR250, genotype TEM-1, SHV-28, CTX-M-15): >128 µg/mL | MIC ([1]; strain CFR UFR251, genotype SHV-11, VIM-1, antibiotic alone): >128 µg/mL | MIC ATB in combination ([1]; strain CFR UFR251, with CLA @ 4 μg/mL): >128 µg/mL | MIC ([1]; strain CFR UFR252, genotype VIM-2, antibiotic alone): >128 µg/mL | MIC ATB in combination ([1]; strain CFR UFR252, with CLA @ 4 μg/mL): >128 µg/mL | MIC ([1]; strain CFR UFR253, genotype TEM-1, SHV-12, OXA-48): >128 µg/mL | MIC ATB in combination ([1]; strain CFR UFR253, with CLA @ 4 μg/mL): >128 µg/mL | MIC ([1]; strain CFR UFR254, genotype VEB-1b, OXA-48, qnrA): >128 µg/mL | MIC ATB in combination ([1]; strain CFR UFR254, with CLA @ 4 μg/mL): >128 µg/mL | MIC ATB in combination [2]: >128 µg/mL | MIC ATB in combination ([2]; CKO ROU, AF2 @ 8 μg/mL): 8 µg/mL | MIC ([2]; strain CKO ROU, genotype TEM-1, SHV-12, CTX-M-15, OXA-1, OXA-48): >256 µg/mL | MIC ([2]; strain CKO UFR149, genotype OXA-48): >128 µg/mL | MIC ([2]; strain CKO UFR150, genotype TEM-1, OXA-48): >128 µg/mL | MIC ATB in combination ([3]; EAE 49469, AF2 @ 8 μg/mL): <=0.25 μg/mL | MIC ATB in combination ([3]; EAE 49469, CLA @ 4 μg/mL): >128 µg/mL | MIC ATB in combination ([3]; EAE 200261, AF2 @ 8 μg/mL): 16 µg/mL | MIC ATB in combination ([3]; EAE 200261, CLA @ 4 μg/mL): >128 µg/mL | MIC ATB in combination ([3]; EAE UFR199, CLA @ 4 μg/mL): >128 µg/mL | MIC ATB in combination ([3]; EAE UFR201, CLA @ 4 μg/mL): 16 µg/mL | MIC ATB in combination ([3]; EAE UFR202, CLA @ 4 μg/mL): >128 µg/mL | MIC ATB in combination ([3]; EAE UFR207, CLA @ 4 μg/mL): 32 µg/mL | MIC ATB in combination ([3]; EAE UFR213, CLA @ 4 μg/mL): >128 µg/mL | MIC ([3]; strain EAE 49469, genotype AmpC): >1024 µg/mL | MIC ([3]; strain EAE 200261, genotype TEM-x, AmpC): >256 µg/mL | MIC ([3]; strain EAE UFR199, genotype TEM-1b, SHV-12, KPC-2, OXA-9): >128 µg/mL | MIC ([3]; strain EAE UFR201, genotype TEM-1, SHV-12, CTX-M-15): >128 µg/mL | MIC ([3]; strain EAE UFR202, genotype TEM-24): >128 µg/mL | MIC ([3]; strain EAE UFR213, genotype TEM-24): >128 µg/mL | MIC ATB in combination [4]: >128 µg/mL and 128 µg/mL | MIC ATB in combination ([4]; ECO 4133, AF2 @ 8 μg/mL): <0.25 µg/mL | MIC ATB in combination ([4]; ECO 5302, AF2 @ 8 μg/mL): <0.25 µg/mL | MIC ATB in combination ([4]; ECO 131119, AF2 @ 8 μg/mL): <0.25 µg/mL | MIC ATB in combination ([4]; ECO 131119, CLA @ 4 μg/mL): >512 µg/mL | MIC ATB in combination ([4]; ECO 180070, AF2 @ 8 μg/mL): <0.25 µg/mL | MIC ATB in combination ([4]; ECO 180070, CLA @ 4 μg/mL): 16 µg/mL | MIC ATB in combination ([4]; ECO 190314, AF2 @ 8 μg/mL): <0.25 µg/mL | MIC ATB in combination ([4]; ECO 190314, CLA @ 4 μg/mL): 8 µg/mL | MIC ATB in combination ([4]; ECO 190317, AF2 @ 8 μg/mL): <0.25 µg/mL | MIC ATB in combination ([4]; ECO 190317, CLA @ 4 μg/mL): 64 µg/mL | MIC ATB in combination ([4]; ECO 190457, AF2 @ 8 μg/mL): <0.25 µg/mL | MIC ATB in combination ([4]; ECO 190549, AF2 @ 8 μg/mL): <0.25 µg/mL | MIC ATB in combination ([4]; ECO 190549, CLA @ 4 μg/mL): 8 µg/mL | MIC ATB in combination ([4]; ECO 200159, AF2 @ 8 μg/mL): <0.25 µg/mL | MIC ATB in combination ([4]; ECO 200159, CLA @ 4 μg/mL): 8 µg/mL | MIC ATB in combination ([4]; ECO 200259, AF2 @ 8 μg/mL): <0.25 µg/mL | MIC ATB in combination ([4]; ECO 200259, CLA @ 4 μg/mL): 8 µg/mL | MIC ATB in combination ([4]; ECO 200344, AF2 @ 8 μg/mL): <0.25 µg/mL | MIC ATB in combination ([4]; ECO 200344, CLA @ 4 μg/mL): 16 µg/mL | MIC ATB in combination ([4]; ECO 260096, AF2 @ 8 μg/mL): 0.5 µg/mL | MIC ATB in combination ([4]; ECO 260096, CLA @ 4 μg/mL): 4 µg/mL | MIC ATB in combination ([4]; ECO 260304, AF2 @ 8 μg/mL): <0.25 µg/mL | MIC ATB in combination ([4]; ECO 260304, CLA @ 4 μg/mL): 4 µg/mL | MIC ATB in combination ([4]; ECO 260508, AF2 @ 8 μg/mL): <0.25 µg/mL | MIC ATB in combination ([4]; ECO 260508, CLA @ 4 μg/mL): 64 µg/mL | MIC ATB in combination ([4]; ECO RGN238, AF2 @ 8 μg/mL): <0.25 µg/mL | MIC ATB in combination ([4]; ECO UFR15, AF2 @ 8 μg/mL): <0.25 µg/mL | MIC ATB in combination ([4]; ECO UFR16, AF2 @ 8 μg/mL): <0.25 µg/mL | MIC ATB in combination ([4]; ECO UFR18, AF2 @ 8 μg/mL): <0.25 µg/mL | MIC ATB in combination ([4]; ECO UFR19, AF2 @ 8 μg/mL): <0.25 µg/mL | MIC ATB in combination ([4]; ECO UFR32, AF2 @ 8 μg/mL): <0.25 µg/mL | MIC ATB in combination ([4]; ECO UFR39, AF2 @ 8 μg/mL): <0.25 µg/mL | MIC ATB in combination ([4]; ECO UFR41, AF2 @ 8 μg/mL): <0.25 µg/mL

Reference: patent US20200017495A1, “NOVEL HETEROCYCLIC COMPOUNDS AND THEIR USE IN PREVENTING OR TREATING BACTERIAL INFECTIONS” (priority 2017, published 2020)
